The text below walks through data of US20060134197A1, “Method of reducing unpleasant taste and/or unpleasant odor” (priority 2002, published 2006).

The structures appear in SMILES notation.

Assay [1] can be described thus: Panel test of lowering iron taste and/or smell of aqueous bivalent iron ion solution. Set-up: key to Effect on lowering iron taste and/or smell: “Not effective (symbol “−”)” meaning of that the test aqueous solution showed no difference in iron taste and/or smell from that the control aqueous solution; “Slightly effective (symbol “+”)”, the test aqueous solution showes weaker iron taste and/or smell than the control aqueous solution but the deference was not significant; “Effective (symbol “++”)”, the test aqueous solution showed a slight iron taste and/or smell but it was significantly weaker than that of the control aqueous solution; “Strongly effective (symbol “+++”)”, the test aqueous solution showed almost no iron taste and/or smell. Conditions: for Effect on lowering iron taste and/or smell: 5 mg bivalent iron per 100 ml, 12 panels; for Concentration effective on lowering unpleasant taste and/or smell of aqueous iron ion solution: to the total weight of the aqueous solution, dry solid basis. Here is the method:
To confirm the effect of various saccharides on inhibiting taste and/or smell of bivalent iron ion, the following experiment was carried out. An aqueous solution containing bivalent iron ion was prepared by dissolving 0.05556 part by weight of ammonium ferric citrate (iron content of about 18%), and 0.1 part by weight of ascorbic acid in 100 parts by weight of deionized water. Test aqueous solutions containing 5 mg of bivalent iron per 100 ml of water and 0.5, 1.0, 1.5, 2.0 or 5.0% of saccharide selected from sucrose, maltose (hydrous crystalline maltose commercialized by Hayashibara Biochemical Laboratories, Inc., Okayama, Japan, purify 99.0% or more), α,α-trehalose (hydrous crystalline α,α-trehalose commercialized by Hayashibara Biochemical Laboratories, Inc., Okayama, Japan, purity 99.0% or more), α-glucosyl α,α-trehalose (hydrous crystalline α-glucosyl α,α-trehalose prepared in Experiment B-1 of Japanese Patent Publication (Kokai) No. 291,986/1995, purity 99.0% or more), and […] (powdery α-maltosyl α,α-trehalose prepared in Example 5 described following, purity 98.1%) were prepared by admixing the above aqueous solution containing bivalent iron with an equal volume of a pre-prepared aqueous solution containing any one of the above saccharides at a concentration of 1.0, 2.0, 3.0, 4.0 or 10.0%, on a dry solid basis. As a control, an aqueous solution was prepared by admixing the aqueous solution containing bivalent iron ion with an equal volume of warter instead of the aqueous saccharide solution.
The effect on lowering iron taste and/or smell, namely unpleasant taste and/or smell of iron ion existing in a test aqueous solution at a concentration of 5 mg per 100 ml was judged by a panel test using 12 panels. […] In the judgement for each test aqueous solution, ten or more of 12 panels answered the same judgement.

Assay [2] is described as follows: Inhibiting the production of hydrogen sulfide from heated minced mackerel. Conditions: minced mackerel with 5% saccharide solution, headspace gas. Here is the method: Five grams of minced mackerel, prepared by mincing commercialized mackerel without head part, internal organs and bone with a mincer to homogeneity, was placed in a 20-ml vial, and admixed with 5 ml of an aqueous solution containing on a dry solid basis 5% of “TREHA®”, a food grade hydrous α,α-trehalose commercialized by Hayashibara Biochemical laboratories, Inc., Okayama, Japan (purity 99.0% or more), sucrose (a commercialized granulated sugar), or a syrupy saccharide mixture containing saccharide derivatives of α,α-trehalose prepared in Example 1. The resulting vials were sealed with a butyl gum cap to prepare test samples. As a control, a vial containing 5 g of the minced mackerel and 5 ml of deionized water was sealed with a butyl gum cap for a control sample. […]
Similarly as in Experiment 4, the content of hydrogen sulfide was measured using 10 ml of a headspace gas by “GASTECH No. 4 LT”, a hydrogen sulfide detector commercialized by GL Science Corporation, under an aspiration time of one minute.
(§1) The values of the production of amines, hydrogen sulfide and aldehydes of each test sample were compared with the value of control defined as 100 to calculate the relative values thereof. And then, the relative rates of inhibiting the production of amines, hydrogen sulfide and aldehydes were respectively calculated by 100 minus each of the relative values.

Assay [3] in a line: Inhibiting the production of aldehydes from heated minced mackerel (headspace GC). The conditions noted are these: minced mackerel with 5% saccharide solution; for Relative rate of inhibiting the production of acetaldehyde / Relative rate of inhibiting the production of butanal / Relative rate of inhibiting the production of decanal / Relative rate of inhibiting the production of heptanal / Relative rate of inhibiting the production of hexanal / Relative rate of inhibiting the production of nonanal / Relative rate of inhibiting the production of octanal / Relative rate of inhibiting the production of pentanal / Relative rate of inhibiting the production of propanal: headspace gas; for Relative rate of inhibiting the production of total aldehydes: sum of nine aldehydes. Here is the method:
Five grams of minced mackerel, prepared by mincing commercialized mackerel without head part, internal organs and bone with a mincer to homogeneity, was placed in a 20-ml vial, and admixed with 5 ml of an aqueous solution containing on a dry solid basis 5% of “TREHA®”, a food grade hydrous α,α-trehalose commercialized by Hayashibara Biochemical laboratories, Inc., Okayama, Japan (purity 99.0% or more), sucrose (a commercialized granulated sugar), or a syrupy saccharide mixture containing saccharide derivatives of α,α-trehalose prepared in Example 1. The resulting vials were sealed with a butyl gum cap to prepare test samples. As a control, a vial containing 5 g of the minced mackerel and 5 ml of deionized water was sealed with a butyl gum cap for a control sample. These samples were heated in boiled water for 15 minutes, cooled in running water, and heated at 80° C. for five minutes. The resulting headspace gas was taken from each of the vials and allowed to measure the contents of amines, hydrogen sulfide and aldehydes.
Measurement of the content of aldehydes was carried out by subjecting 2 ml of the headspace gas to analysis by GC-14B gas chromatography, a hydrogen flame ionizing detector commercialized by Shimazu co., Ltd., Kyoto, Japan, with flowing helium gas as a carrier gas in 1 ml/minute, and using TC-FFAP capillary column, 30min length and 0.52 mm in internal diameter (df=1 μm, sprit rate 1/30), commercialized by GL Science Company, with an increasing column temperature from 40° C. to 250° C. at a rate of 5° C./minute.
as §1

Assay [4] can be described thus: Inhibiting the production of hydrogen sulfide from L-cysteine due to heat-decomposition. Conditions: 2.5 g L-cysteine hydrochloride and 5 g saccharide in 50 ml; 80° C. for 15 minutes; 100 minus relative value, control defined as 100. The source says: Two and half grams of precisely weighted L-cysteine hydrochloride (special reagent grade) and on a dry solid basis 5 g of a precisely measured saccharide sample; i.e. hydrous crystalline α,α-trehalose (reagent grade, purity 99.0% or more, commercialized by Hayashibara Biochemical Laboratories, Inc., Okayama, Japan), α-maltosyl α,α-trehalose prepared in the following Example 5 (purity 98.1%), or a reagent grade maltotetraose (purity 97.0% or more, commercialized by Hayashibara Biochemical Laboratories, Inc., Okayama, Japan); were placed in a 50-ml volume measuring flask and dissolved in deionized water to give a final volume of 50 ml. As a control, 2.5 g of precisely measured L-cysteine hydrochloride (special reagent grade) was dissolved in deionized water to give a final volume of 50 ml. Five ml of each sample was place into a 20-ml volume vial, sealed with a butyl gum cap, and kept at 80° C. for 15 minutes in an incubator. Hydrogen sulfide contained in 10 ml of the resulting headspace gas was measured by “GASTECH No. 4 LT”, a hydrogen sulfide detector commercialized by GL Science Corporation, under an aspiration time of one minute. The resulting value of the production of hydrogen sulfide of each test sample was compared with the value of control defined as 100 to calculate the relative value of the production of hydrogen sulfide. And then, the relative rate of inhibiting the production of hydrogen sulfide was calculated by 100 minus the relative value.

The nature of assay [5]: Separately carried panel test of smell of cocoa samples. The conditions noted are these: all of nine panels.

Take `OC[C@H]1O[C@@](CO)(O[C@H]2O[C@H](CO)[C@@H](O)[C@H](O)[C@H]2O)[C@@H](O)[C@@H]1O` [Sucrose, sucrose]: the “Effect on lowering iron taste and/or smell” value in assay [1] (saccharide 0.5%) was “−”. Also, in assay [1] (saccharide 1.0%), the “Effect on lowering iron taste and/or smell” value is “−”. In assay [1] (saccharide 1.5%), the “Effect on lowering iron taste and/or smell” value is listed as “−”. Further, the “Effect on lowering iron taste and/or smell” value in assay [1] (saccharide 2.0%) is “−”. Moreover, in assay [1] (saccharide 5.0%), the “Effect on lowering iron taste and/or smell” value is recorded as “−”. Also, in assay [1], the “Concentration effective on lowering unpleasant taste and/or smell of aqueous iron ion solution” value is on record as “not effective”. The “Relative rate of inhibiting the production of hydrogen sulfide” value in assay [2] came to 12. Also, in assay [3], the “Relative rate of inhibiting the production of acetaldehyde” value is recorded as 13, the “Relative rate of inhibiting the production of butanal” value is listed as −13, the “Relative rate of inhibiting the production of decanal” value turned out to be 57 and the “Relative rate of inhibiting the production of heptanal” value was 54. Also, in assay [3], the “Relative rate of inhibiting the production of hexanal” value is recorded as 33, the “Relative rate of inhibiting the production of nonanal” value was −54, the “Relative rate of inhibiting the production of octanal” value turned out to be 43 and the “Relative rate of inhibiting the production of pentanal” value is −15. Moreover, in assay [3], the “Relative rate of inhibiting the production of propanal” value came to 32 and the “Relative rate of inhibiting the production of total aldehydes” value was determined as 20.

Regarding `OC[C@H]1O[C@H](O[C@H]2O[C@H](CO)[C@@H](O)[C@H](O)[C@H]2O)[C@H](O)[C@@H](O)[C@@H]1O` [α,α-Trehalose, α,α-trehalose], the “Effect on lowering iron taste and/or smell” value in assay [1] (saccharide 0.5%) is listed as “−”. In addition, in assay [1] (saccharide 1.0%), the “Effect on lowering iron taste and/or smell” value is “−”. Besides, the “Effect on lowering iron taste and/or smell” value in assay [1] (saccharide 1.5%) is given as “+”. Also, the “Effect on lowering iron taste and/or smell” value in assay [1] (saccharide 2.0%) is on record as “+”. The “Effect on lowering iron taste and/or smell” value in assay [1] (saccharide 5.0%) was “++”. For the same compound, in assay [1], the “Concentration effective on lowering unpleasant taste and/or smell of aqueous iron ion solution” value is reported as ≥ 1.5%. For the same compound, the “Relative rate of inhibiting the production of hydrogen sulfide” value in assay [4] was 52. Also, in assay [2], the “Relative rate of inhibiting the production of hydrogen sulfide” value came out at 26. For the same compound, in assay [3], the “Relative rate of inhibiting the production of acetaldehyde” value is given as 73, the “Relative rate of inhibiting the production of butanal” value is 100, the “Relative rate of inhibiting the production of decanal” value worked out at 76 and the “Relative rate of inhibiting the production of heptanal” value is 88. In assay [3], the “Relative rate of inhibiting the production of hexanal” value is recorded as 93, the “Relative rate of inhibiting the production of nonanal” value amounted to 100, the “Relative rate of inhibiting the production of octanal” value was 100 and the “Relative rate of inhibiting the production of pentanal” value is 83. For the same compound, in assay [3], the “Relative rate of inhibiting the production of propanal” value came to 98 and the “Relative rate of inhibiting the production of total aldehydes” value was found to be 80. Also, in assay [5], the “Smell of cocoa sample judged by panels” value is listed as “favorite smell”.
